Results reported in publication PMC9291687.
Read-outs that look alike come from different tables or passages of the source.

What was measured:
prostate cancer (PC-3) = experiment: MTT antiproliferative assay, PC-3; details: for inhibition at 100 µM / IC50: Homo sapiens; for inhibition at 100 µM: read-out: Growth inhibition (%) PC-3; for Growth inhibition (%) PC-3: 100 μM, MTT; for IC50: read-out: IC50 PC-3
Protocol: (§1) Preliminary screening against the cancer cell lines was performed, using doxorubicin as a reference drug at doses of 100 μM.
(§2) In vitro cytotoxicity was carried out using MTT assay protocol[63] as described in Supplementary data.
(§3) proliferative activity was assessed quantitatively as follows;
(§4) Human cancer cell lines were dropped in 96-well plates at a density of 3-8 × 10^3 cells/well.
(§5) growth medium was exchanged with 0.1 ml of fresh medium containing graded concentrations of the test compounds to be or equal DMSO and incubated for two days. Then 10 μl MTT solution (0.5 mg/ml) was added to each well, and the cells were incubated for additional 4 h. The crystals of MTT-formazan were dissolved in 100 μl of DMSO; the absorbance of each well was measured at 490 nm using an automatic ELISA reader system (TECAN, CHE). The IC50 values were calculated using the nonlinear regression fitting models (Graph Pad, Prism Version 5). The data represented the mean of three independent experiments in triplicate and were expressed as means
(§6) The results were expressed as growth inhibitory concentration (IC50) values and

lung cancer (A-549) = experiment: MTT antiproliferative assay, A-549; details: for inhibition at 100 µM / IC50: Homo sapiens; for inhibition at 100 µM: A549, read-out: Growth inhibition (%) A549; for Growth inhibition (%) A549: 100 μM, MTT
Protocol: as §1, §2, §3, §4, §5, §6

breast cancer (MCF-7) = experiment: MTT antiproliferative assay, MCF-7; details: for inhibition at 100 µM / IC50: Homo sapiens; for inhibition at 100 µM: MCF7, read-out: Growth inhibition (%) MCF-7; for Growth inhibition (%) MCF-7: 100 μM, MTT; for IC50: MCF7, read-out: IC50 MCF-7
Protocol: as §1, §2, §3, §4, §5, §6

colon cancer (HCT-116) = experiment: MTT antiproliferative assay, HCT-116; details: for inhibition at 100 µM / IC50: Homo sapiens; for inhibition at 100 µM: HCT-116, read-out: Growth inhibition (%) HCT-116; for Growth inhibition (%) HCT-116: 100 μM; for Growth inhibition (%) HCT-116 / Cytotoxic activity against HCT-116: MTT; for IC50: HCT-116, read-out: IC50 HCT-116
Protocol: as §1, §2, §3, §4, §5, §6

EGFR^WT = EGFR^WT (Homo sapiens, UniProt P00533); experiment: EGFRWT kinase inhibitory assay (HTRF)
EGFR^WT, sequence (P00533 25-1210): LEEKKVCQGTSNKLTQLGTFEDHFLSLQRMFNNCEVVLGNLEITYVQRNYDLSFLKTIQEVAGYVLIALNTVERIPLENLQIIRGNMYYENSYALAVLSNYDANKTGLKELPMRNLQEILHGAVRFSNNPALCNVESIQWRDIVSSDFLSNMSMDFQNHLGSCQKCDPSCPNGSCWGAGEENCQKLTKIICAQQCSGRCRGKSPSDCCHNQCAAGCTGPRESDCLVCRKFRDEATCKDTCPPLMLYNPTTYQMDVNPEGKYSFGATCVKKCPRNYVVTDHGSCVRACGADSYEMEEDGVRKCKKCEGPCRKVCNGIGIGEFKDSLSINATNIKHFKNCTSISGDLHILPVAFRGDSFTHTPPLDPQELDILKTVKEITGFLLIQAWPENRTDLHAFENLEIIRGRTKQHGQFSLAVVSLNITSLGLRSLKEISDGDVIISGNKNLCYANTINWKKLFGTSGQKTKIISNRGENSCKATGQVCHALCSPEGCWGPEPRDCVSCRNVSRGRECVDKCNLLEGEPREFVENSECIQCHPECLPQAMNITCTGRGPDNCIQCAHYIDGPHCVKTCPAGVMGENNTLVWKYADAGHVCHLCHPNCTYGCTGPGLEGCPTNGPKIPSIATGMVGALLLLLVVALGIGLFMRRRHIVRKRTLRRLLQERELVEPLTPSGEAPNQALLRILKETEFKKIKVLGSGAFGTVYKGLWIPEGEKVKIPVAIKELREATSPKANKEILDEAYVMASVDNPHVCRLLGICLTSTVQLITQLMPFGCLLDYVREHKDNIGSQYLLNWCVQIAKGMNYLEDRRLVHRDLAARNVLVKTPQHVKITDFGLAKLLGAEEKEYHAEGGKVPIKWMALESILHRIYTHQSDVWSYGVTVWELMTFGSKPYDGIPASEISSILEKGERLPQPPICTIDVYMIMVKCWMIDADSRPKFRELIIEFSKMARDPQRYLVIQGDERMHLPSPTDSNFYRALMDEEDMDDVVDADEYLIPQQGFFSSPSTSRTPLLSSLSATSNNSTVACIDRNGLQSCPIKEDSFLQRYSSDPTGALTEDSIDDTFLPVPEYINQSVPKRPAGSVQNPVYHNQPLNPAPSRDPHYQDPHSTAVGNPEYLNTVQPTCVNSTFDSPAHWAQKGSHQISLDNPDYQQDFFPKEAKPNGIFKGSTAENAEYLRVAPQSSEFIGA
Protocol: (§7) In vitro EGFR inhibitory activity was assessed using Homogeneous time-resolved fluorescence (HTRF) assay[64] as described in Supplementary data.
(§8) The IC50 values were calculated using the nonlinear regression fitting models (Graph Pad, Prism Version 5).
(§9) EGFRWT and EGFRT790M kinase inhibitory assay
(§10) Homogeneous time resolved fluorescence (HTRF) assay was applied in this test.
(§11) EGFRWT, EGFRT790M (Sigma). firstly, the EGFRWT and/or EGFRT790M and their substrates were incubated with the tested compounds in enzymatic buffer for 5 min.
(§12) into the reaction mixture to allow starting the enzymatic reaction. The assay was conducted for 30 min at room temperature. The reaction was stopped by addition of detection reagents which contain
(§13) GraphPad Prism 5.0. Three independent experiments were performed for each concentration.

EGFR^T790M = EGFR^T790M (Homo sapiens, UniProt P00533, T790M); experiment: EGFRT790M kinase inhibitory assay (HTRF)
EGFR^T790M, sequence (P00533 25-1210 T790M): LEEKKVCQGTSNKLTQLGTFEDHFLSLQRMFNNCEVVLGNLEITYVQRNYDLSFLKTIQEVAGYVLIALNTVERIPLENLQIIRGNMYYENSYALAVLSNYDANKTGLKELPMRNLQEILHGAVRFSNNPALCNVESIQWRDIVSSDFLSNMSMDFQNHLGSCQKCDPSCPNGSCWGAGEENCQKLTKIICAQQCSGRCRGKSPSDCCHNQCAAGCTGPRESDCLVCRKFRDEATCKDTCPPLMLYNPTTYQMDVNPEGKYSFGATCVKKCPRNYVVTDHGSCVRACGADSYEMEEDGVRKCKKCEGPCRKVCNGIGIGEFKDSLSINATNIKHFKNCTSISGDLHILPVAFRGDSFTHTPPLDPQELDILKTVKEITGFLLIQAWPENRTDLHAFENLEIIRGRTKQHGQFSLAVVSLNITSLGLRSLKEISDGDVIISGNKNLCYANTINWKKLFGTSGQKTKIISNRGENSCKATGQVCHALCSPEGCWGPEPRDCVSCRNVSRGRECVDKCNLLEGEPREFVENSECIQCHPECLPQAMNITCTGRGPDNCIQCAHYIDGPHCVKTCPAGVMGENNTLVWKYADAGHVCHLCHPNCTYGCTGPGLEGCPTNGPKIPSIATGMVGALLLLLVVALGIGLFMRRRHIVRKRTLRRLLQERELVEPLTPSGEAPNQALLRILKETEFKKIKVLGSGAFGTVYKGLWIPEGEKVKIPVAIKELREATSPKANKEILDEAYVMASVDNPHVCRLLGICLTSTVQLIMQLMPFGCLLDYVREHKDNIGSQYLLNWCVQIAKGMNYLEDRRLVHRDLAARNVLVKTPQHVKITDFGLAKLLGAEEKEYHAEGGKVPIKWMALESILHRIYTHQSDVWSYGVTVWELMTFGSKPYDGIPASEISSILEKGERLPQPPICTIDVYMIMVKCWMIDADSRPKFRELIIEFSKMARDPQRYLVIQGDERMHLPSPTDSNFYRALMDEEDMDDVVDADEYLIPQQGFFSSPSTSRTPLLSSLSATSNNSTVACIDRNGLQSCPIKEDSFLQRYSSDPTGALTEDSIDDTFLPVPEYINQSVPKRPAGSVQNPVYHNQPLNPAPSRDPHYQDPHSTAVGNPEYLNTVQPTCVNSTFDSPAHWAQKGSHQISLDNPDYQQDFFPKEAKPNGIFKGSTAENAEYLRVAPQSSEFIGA
Protocol: as §7, §8, §9, §10, §11, §12, §13

caspase-3 in PC-3 cells = experiment: Caspase-3 determination (ELISA); assay type: cell-based, human; details: 24 h treatment, 8a at 3.04 µM, control 84.24, mean ± SEM
[1] = A549, read-out: IC50 A-549, MTT, mean of at least three experiments

Molecule | melting point | inhibition at 100 µM (prostate cancer (PC-3)) | inhibition at 100 µM (lung cancer (A-549)) | inhibition at 100 µM (breast cancer (MCF-7)) | inhibition at 100 µM (colon cancer (HCT-116)) | other results
COc1cc(-c2cc(-c3ccc(Cl)cc3)nc3nc4[nH][nH]c(=O)n4c(=O)c23)cc(OC)c1OC [Compound 10c, 8-(4-Chlorophenyl)-6–(3,4,5-trimethoxyphenyl)-1,2-dihydropyrido[2,3-d][1,2, 4]triazolo[4,3-a]pyrimidine-3,5-dione] | 367 to 369 °C | 52% | 9% | 8% | 23% | 
3-Amino-8-(p-Tolyl)-6–(3,4,5-trimethoxyphenyl)-2,3-dihydropyrido[2,3-d][1, 2, 4]triazolo[4,3-a]pyrimidin-5(1H)-one [Compound 11e] |  |  |  |  |  | Growth inhibition (%) PC-3 (prostate cancer (PC-3)): 22%; Growth inhibition (%) A549 (lung cancer (A-549)): 30%; Growth inhibition (%) MCF-7 (breast cancer (MCF-7)): 23%; Growth inhibition (%) HCT-116 (colon cancer (HCT-116)): 6%
COc1ccc(-c2cc(-c3ccc(C)cc3)nc3nc4[nH]nc(-c5ccccc5)n4c(=O)c23)cc1 [Compound 12b, 6-(4-Methoxyphenyl)-3-phenyl-8-(p-tolyl)pyrido[2,3-d][1,2, 4]triazolo[4,3-a]pyrimidin-5(1H)-one] | 325 to 327 °C | 36% | 33% | 54% | 56% | IC50 (colon cancer (HCT-116)): 86.3 ± 2.2 µM; Cytotoxic activity against HCT-116 (colon cancer (HCT-116)): mild cytotoxic activity
NNc1nc2nc(-c3ccc(Cl)cc3)cc(-c3ccc(Cl)cc3Cl)c2c(=O)[nH]1 [Compound 9a, 7-(4-Chlorophenyl)-5–(2,4-dichlorophenyl)-2-hydrazineylpyrido[2,3-d]pyrimidin-4(3H)-one] | 265 to 267 °C | 90% | 42% | 68% | 89% | IC50 (prostate cancer (PC-3)): 9.26 ± 2.4 µM; IC50 (breast cancer (MCF-7)): 42 ± 1.2 µM; IC50 (EGFR^WT): 0.594 ± 0.042 µM; IC50 (EGFR^T790M): 0.571 ± 0.046 µM
O=c1[nH]c(=S)[nH]c2nc(-c3ccc(Cl)cc3)cc(-c3ccc(Cl)cc3Cl)c12 [Compound 7a, 7–(4-Chlorophenyl)-5–(2,4-dichlorophenyl)-2-thioxo-2,3-dihydropyrido [2,3-d]pyrimidin-4(1H)-one] | 318 to 320 °C | 12% | 14% | 34% | 18% | 
COc1cc(-c2cc(-c3ccc(C)cc3)nc3nc4[nH]c5ccccc5c(=O)n4c(=O)c23)cc(OC)c1OC [Compound 8d, 2-(p-Tolyl)-4–(3,4,5-trimethoxyphenyl)-5H-pyrido[2',3':4,5] pyrimido[2,1-b]quinazoline-5,7(12H)-dione] | > 300 °C | 95% | 97% | 15% | 78% | IC50 (prostate cancer (PC-3)): 7.12 ± 2 µM; IC50 (lung cancer (A-549); [1]): 7.23 ± 2.1 µM; IC50 (colon cancer (HCT-116)): 70.2 ± 2 µM; Cytotoxic activity against HCT-116 (colon cancer (HCT-116)): mild cytotoxic activity; IC50 (EGFR^WT): 0.419 ± 0.029 µM; IC50 (EGFR^T790M): 0.29 ± 0.023 µM
3-Amino-8–(4-chlorophenyl)-6-(p-tolyl)-2,3-dihydropyrido[2,3-d][1, 2, 4] triazolo[4,3-a]pyrimidin-5(1H)-one [Compound 11b] |  |  |  |  |  | Growth inhibition (%) PC-3 (prostate cancer (PC-3)): 43%; Growth inhibition (%) A549 (lung cancer (A-549)): 28%; Growth inhibition (%) MCF-7 (breast cancer (MCF-7)): 29%; Growth inhibition (%) HCT-116 (colon cancer (HCT-116)): 15%
Cc1ccc(-c2cc(-c3ccc(Cl)cc3)nc3nc4[nH]nc(-c5ccccc5)n4c(=O)c23)cc1 [Compound 12a, 8–(4-Chlorophenyl)-3-phenyl-6-(p-tolyl)pyrido[2,3-d][1,2, 4]triazolo[4,3-a]pyrimidin-5(1H)-one] | 315 to 317 °C | 28% | 41% | 45% | 35% | 
COc1cccc2c1C(=O)c1c(O)c3c(c(O)c1C2=O)C[C@@](O)(C(=O)CO)C[C@@H]3O[C@H]1C[C@H](N)[C@H](O)[C@H](C)O1 [Doxorubicin, reference compound] |  | 100% | 100% | 100% | 100% | 
COc1ccc(-c2cc(-c3ccc(C)cc3)nc3nc4[nH]c5ccccc5c(=O)n4c(=O)c23)cc1 [Compound 8b, 4–(4-Methoxyphenyl)-2-(p-tolyl)-5H-pyrido[2',3':4,5] pyrimido[2,1-b] quinazoline-5,7(12H)-dione] | > 300 °C | 96% | 94% | 9% | 67% | IC50 (prostate cancer (PC-3)): 18 ± 2.3 µM; IC50 (lung cancer (A-549); [1]): 16 µM; IC50 (colon cancer (HCT-116)): 26 ± 1.3 µM; Cytotoxic activity against HCT-116 (colon cancer (HCT-116)): mild cytotoxic activity; IC50 (EGFR^T790M): 0.29 µM
COc1ccc(-c2cc(-c3ccc(C)cc3)nc3nc4[nH][nH]c(=O)n4c(=O)c23)cc1 [Compound 10b, 6-(4-Methoxyphenyl)-8-(p-tolyl)-1,2-dihydropyrido[2,3-d][1,2, 4]triazolo[4,3-a]pyrimidine-3,5-dione] | 366 to 368 °C | 15% | 7% | 4% | 14% | 
3-Amino-8–(4-chlorophenyl)-6–(3,4,5-trimethoxyphenyl) -2,3dihydropyrido[2,3-d][1, 2, 4]triazolo[4,3-a] pyrimidin-5(1H)-one [Compound 11d] |  |  |  |  |  | Growth inhibition (%) PC-3 (prostate cancer (PC-3)): 20%; Growth inhibition (%) A549 (lung cancer (A-549)): 5%; Growth inhibition (%) MCF-7 (breast cancer (MCF-7)): 37%; Growth inhibition (%) HCT-116 (colon cancer (HCT-116)): 3%
COc1cc(-c2cc(-c3ccc(Cl)cc3)nc3nc4[nH]c5ccccc5c(=O)n4c(=O)c23)cc(OC)c1OC [Compound 8c, 2–(4-Chlorophenyl)-4–(3,4,5-trimethoxyphenyl)-5H-pyrido [2',3':4,5] pyrimido[2,1-b]quinazoline-5,7(12H)-dione] | < 300 °C | 17% | 8% | 21% | 9% | 
3-Amino-6–(4-methoxyphenyl)-8-(p-tolyl)-2,3-dihydropyrido[2,3-d][1, 2, 4] triazolo[4,3-a]pyrimidin-5(1H)-one [Compound 11c] |  |  |  |  |  | Growth inhibition (%) PC-3 (prostate cancer (PC-3)): 28%; Growth inhibition (%) A549 (lung cancer (A-549)): 26%; Growth inhibition (%) MCF-7 (breast cancer (MCF-7)): 23%; Growth inhibition (%) HCT-116 (colon cancer (HCT-116)): 3%
Cc1ccc(-c2cc(-c3ccc(Cl)cc3)nc3nc4[nH][nH]c(=O)n4c(=O)c23)cc1 [Compound 10a, 8-(4-Chlorophenyl)-6-(p-tolyl)-1,2-dihydropyrido[2,3-d][1,2, 4]triazolo[4,3-a]pyrimidine-3,5-dione] | 347 to 349 °C | 29% | 17% | 41% | 21% | 
C#Cc1cccc(Nc2ncnc3cc(OCCOC)c(OCCOC)cc23)c1 [Erlotinib, reference compound] |  |  |  |  |  | IC50 (prostate cancer (PC-3)): 11.1 ± 1.07 µM; IC50 (lung cancer (A-549); A549, read-out: IC50 A-549): 6.53 ± 0.82 µM; IC50 (breast cancer (MCF-7)): 4.21 ± 0.62 µM
COc1cc(-c2cc(-c3ccc(C)cc3)nc3nc4[nH]nc(-c5ccccc5)n4c(=O)c23)cc(OC)c1OC [Compound 12d, 3-Phenyl-8-(p-tolyl)-6–(3,4,5-trimethoxyphenyl)pyrido[2,3-d][1,2, 4]triazolo [4,3-a]pyrimidin-5(1H)-one] | 322 to 324 °C | 14% | 4% | 15% | 5% | 
COc1cc(-c2cc(-c3ccc(C)cc3)nc3nc4[nH][nH]c(=O)n4c(=O)c23)cc(OC)c1OC [Compound 10d, 8-(p-Tolyl)-6–(3,4,5-trimethoxyphenyl)-1,2-dihydropyrido[2,3-d][1,2, 4]triazolo [4,3-a]pyrimidine-3,5-dione] | 391 to 393 °C | 8% | 2% | 5% | 5% | 
3-Amino-8–(4-chlorophenyl)-6–(2,4-dichlorophenyl)-10,10a-dihydropyrido [2,3-d][1, 2, 4]triazolo[4,3-a]pyrimidin-5(1H)-one [Compound 11a] |  |  |  |  |  | Growth inhibition (%) PC-3 (prostate cancer (PC-3)): 30%; Growth inhibition (%) A549 (lung cancer (A-549)): 2%; Growth inhibition (%) MCF-7 (breast cancer (MCF-7)): 7%; Growth inhibition (%) HCT-116 (colon cancer (HCT-116)): 9%
CN[C@@H]1C[C@H]2O[C@@](C)([C@@H]1OC)n1c3ccccc3c3c4c(c5c6ccccc6n2c5c31)C(=O)NC4 [Staurosporine, reference compound] |  |  |  |  |  | Caspase-3 level (caspase-3 in PC-3 cells): 413.1 ± 11.66 pg/mL; Caspase-3 level (caspase-3 in PC-3 cells; listed as staurosporine): 413.1 pg/mL
COc1cc(-c2cc(-c3ccc(Cl)cc3)nc3nc4[nH]nc(-c5ccccc5)n4c(=O)c23)cc(OC)c1OC [Compound 12c, 8-(4-Chlorophenyl)-3-phenyl-6–(3,4,5-trimethoxyphenyl)pyrido[2,3-d][1,2, 4]triazolo[4,3-a]pyrimidin-5(1H)-one] | 313 to 315 °C | 30% | 22% | 55% | 33% | 
